Data as given in patent publication US5698556A, “Methotrexate analogs and methods of using same” (priority 1995, dated 1997).
Where two headings read alike, the source gives them in different places.

How the values were obtained:
[1] = compared with MTX; cited from earlier work
Chicken Liver DHFR = biological target: T1, Chicken Liver DHFR (Gallus gallus, UniProt P00378); test: Inhibition of DHFR, spectrophotometric assay (chicken liver DHFR); format: biochemical; conditions: for IC50: chicken liver DHFR, pH 7.0, read-out: ID50 (drug concentration which inhibits enzyme activity by 50%)
T1 construct: purchased Sigma Chemical Co. (St. Louis, Mo.); host or cells: chicken liver
T1 sequence (P00378 1-189): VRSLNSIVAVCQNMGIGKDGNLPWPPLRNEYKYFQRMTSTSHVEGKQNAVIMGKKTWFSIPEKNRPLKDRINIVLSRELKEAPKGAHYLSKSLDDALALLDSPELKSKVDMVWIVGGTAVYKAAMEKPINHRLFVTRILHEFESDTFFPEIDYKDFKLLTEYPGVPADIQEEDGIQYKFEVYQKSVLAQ
Procedure: (§1) Tests were conducted to determine the ID50 value for methotrexate analogs of the present invention. The ID50 value is the drug concentration which inhibits enzyme activity by 50%. […] DHFR activity was measured as the decrease over time in absorbance at 340 nm.
(§2) DHFR was diluted prior to each experiment in 50 mM potassium phosphate buffer (pH 7.0) containing 0.1 mM NADPH and 0.1% BSA.
(§3) Inhibition studies were carried out by adding to a 1.0 ml cuvette the assay solution containing all components except dihydrofolate, and then incubating the solution for 2 minutes at room temperature. The absorbance of the solution at 340 nm was recorded immediately following the addition of dihydrofolate. The mixtures were then incubated at room temperature for 5 minutes, and the absorbance at 340 nm was again recorded. […] ID50 values were determined by interpolation from graphs of percent of inhibition plotted against drug concentration.

K562 cells = test: Growth inhibition of human leukemia cells (K562); format: cell-based; conditions: for IC50: Homo sapiens; for times more compound as compared with MTX required to inhibit cell growth by 50%: relative to MTX
Procedure: The IC50 value is the drug concentration which inhibits cancer cell growth by 50%.
Two suspensions of human leukemia cell lines were employed in this study. The myelogenous leukemia cell line K562 was cultured in RPMI 1640 (JRH Biosciences) containing 10% filtered fetal bovine serum (FBS; Irvine Scientific), and the lymphoblastic leukemia cell line CCRF/CEM was cultured in RPMI 1640 containing 20% FBS, 100 U/ml penicillin (GIBCO Laboratories, Grand Island, N.Y.), and 100 μg/ml streptomycin (GIBCO). Cells were maintained at 37° C. with 5% CO2 in air, and were cultured using standard sterile tissue culture techniques.
Prior to toxicity studies, cells were maintained 48 hours in the absence of added inhibitor. Logarithmically growing cells were inoculated at 1×10^4 cells/ml in tissue culture grade Petri dishes (35×10 mm), and, following a suitable recovery period, were treated with chemical agents. Inhibitor concentrations ranging from 10^-12 to 10^-4 M were added to the cultures except for a control culture, which contained no added drug. Cell counts were performed by hematometer counting during 120 hours of continuous exposure to the drugs. The IC50 value was obtained by interpolation from graphs of percent growth inhibition plotted against drug concentration.

L. casei DHFR = biological target: T2, L. casei DHFR (Lacticaseibacillus casei, UniProt P00381); test: Inhibition of DHFR, spectrophotometric assay (L. casei DHFR); format: biochemical; conditions: pH 7.0, read-out: ID50 (drug concentration which inhibits enzyme activity by 50%)
T2 construct: purchased New England Enzyme Center (Boston, Mass.); host or cells: MTX-resistant L. casei
T2 sequence (P00381 whole entry): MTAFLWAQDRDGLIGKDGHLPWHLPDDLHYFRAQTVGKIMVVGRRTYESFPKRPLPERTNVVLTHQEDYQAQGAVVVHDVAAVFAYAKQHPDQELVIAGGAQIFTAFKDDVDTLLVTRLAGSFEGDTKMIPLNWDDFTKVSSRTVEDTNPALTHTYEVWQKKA
Procedure: as §1, §2, §3

CCRF/CEM Cells = test: Growth inhibition of human leukemia cells (CCRF/CEM); format: cell-based; conditions: 120 hours continuous exposure
Procedure: Two suspensions of human leukemia cell lines were employed in this study. […] Cells were maintained at 37° C. with 5% CO2 in air, and were cultured using standard sterile tissue culture techniques.
Prior to toxicity studies, cells were maintained 48 hours in the absence of added inhibitor. […] Inhibitor concentrations ranging from 10^-12 to 10^-4 M were added to the cultures except for a control culture, which contained no added drug. Cell counts were performed by hematometer counting during 120 hours of continuous exposure to the drugs. The IC50 value was obtained by interpolation from graphs of percent growth inhibition plotted against drug concentration.

[2] = Metabolism in rabbit liver homogenate (formation of 7-OH-MTX); format: in vitro ADME, New Zealand white rabbit; conditions: pH 7.6
Procedure: For these experiments, freshly isolated liver from a New Zealand white rabbit was homogenized in 400 ml of cold buffer of pH 7.6 consisting of 10 mM Tris-HCl, 25 mM sucrose and 10 mM MgCl2. The homogenate was centrifuged at 1000×g for 20 minutes at 4° C., and the resulting pellet was resuspended in about 14 ml of the same buffer. […] Two ml samples of the homogenate were removed at 10 minute intervals. Samples were boiled S minutes to denature the proteins, and then centrifuged to pelletize cell debris. To determine inhibitor and 7-OH-MTX levels, 100 μl of the supernatant was analyzed by HPLC. For HPLC analysis, a Perkin-Elmer 410 LC solvent delivery system and a 5-μm IBM ODS column (4.1×250 mm) with a Guard column were employed. The mobile phase consisted of 0.1M monobasic sodium phosphate and 0.1M Tris-HCl in methanol at a final pH of 7.6. […] Detector output was recorded and integrated by a Perkin-Elmer LCI 100 integrator.

[3] = cited from earlier work
[4] = K562 cells, 120 hours continuous exposure, read-out: IC50

**Q.** With `CN(Cc1cnc2nc(N)nc(N)c2n1)c1c(F)cc(C(=O)N[C@@H](CCC(=O)O)C(=O)O)cc1F` [3',5'-difluoroMTX] as the compound, how does the “antifolate antagonism / biological activity, in words” value [1] read?
**A.** The value was “little or no increase in biological activity as compared with MTX”.

**Q.** Which IC50 (Chicken Liver DHFR) does the source give for `CNc1nc2nc(N)nc(N)c2nc1CN(C)c1ccc(C(=O)N[C@@H](CCC(=O)O)C(=O)O)cc1` [7-CH3 NH-MTX, 4-amino-7-methylamino-N-10-methylpteroylglutamic acid] here?
**A.** The IC50 was 300 nM.

**Q.** What about the IC50 (K562 cells; [4]) of the same compound?
**A.** Its IC50 is 300 nM.

**Q.** And the “times more compound as compared with MTX required to inhibit cell growth by 50%” value (K562 cells; K562 and CCRF/CEM cells)?
**A.** Its value is 25-40 times.

**Q.** What about the IC50 (L. casei DHFR) of the same compound?
**A.** Its IC50 is 200 nM.

**Q.** What about the IC50 (CCRF/CEM Cells) of the same compound?
**A.** The IC50 was 300 nM.

**Q.** With `CN(Cc1nc2c(N)nc(N)nc2nc1Cl)c1ccc(C(=O)N[C@@H](CCC(=O)O)C(=O)O)cc1` [7-Cl-MTX] as the compound, how does the IC50 (Chicken Liver DHFR) read?
**A.** Its IC50 is 20000 nM.

**Q.** What about the IC50 (K562 cells; [4]) of the same compound?
**A.** Its IC50 is 10000 nM.

**Q.** And the IC50 (L. casei DHFR)?
**A.** The IC50 was 50000 nM.

**Q.** And the IC50 (CCRF/CEM Cells)?
**A.** Its IC50 is 10000 nM.

**Q.** With `CN(Cc1nc2c(N)nc(N)nc2nc1F)c1ccc(C(=O)N[C@@H](CCC(=O)O)C(=O)O)cc1` [7-F-MTX] as the compound, how does the IC50 (Chicken Liver DHFR) read?
**A.** The IC50 was 1500 nM.

**Q.** And the IC50 (K562 cells; [4])?
**A.** The IC50 was 850 nM.

**Q.** And the IC50 (L. casei DHFR)?
**A.** Its IC50 is 500 nM.

**Q.** What about the IC50 (CCRF/CEM Cells) of the same compound?
**A.** The IC50 was 5000 nM.

**Q.** What does the source list for `CN(Cc1nc2c(N)nc(N)nc2nc1N=[N+]=[N-])c1ccc(C(=O)N[C@@H](CCC(=O)O)C(=O)O)cc1` [7-N3 -MTX]?
**A.** IC50 (Chicken Liver DHFR): 400 nM; IC50 (K562 cells; [4]): 1000 nM; IC50 (L. casei DHFR): 200 nM; IC50 (CCRF/CEM Cells): 2000 nM

**Q.** For `CN(Cc1nc2c(N)nc(N)nc2nc1N)c1ccc(C(=O)N[C@@H](CCC(=O)O)C(=O)O)cc1` [7-NH2 -MTX, 4,7-diamino-N-10-methylpteroylglutamic acid], which IC50 (Chicken Liver DHFR) is on record?
**A.** Its IC50 is 140 nM.

**Q.** What about the “effectiveness as DHFR inhibitor, in words” value (Chicken Liver DHFR; chicken liver and L. casei DHFR) of the same compound?
**A.** Its value is “still relatively effective as a DHFR inhibitor”.

**Q.** And the IC50 (K562 cells; [4])?
**A.** Its IC50 is 50 nM.

**Q.** And the “ability to inhibit growth of leukemia cell lines, in words” value (K562 cells; K562 and CCRF/CEM cells)?
**A.** Its value is “still effective at inhibiting the growth of the leukemia cell lines”.

**Q.** What about the “times more compound as compared with MTX required to inhibit cell growth by 50%” value (K562 cells; K562 and CCRF/CEM cells) of the same compound?
**A.** Its value is 6-7 times.

**Q.** And the IC50 (L. casei DHFR)?
**A.** The IC50 was 168 nM.

**Q.** What about the IC50 (CCRF/CEM Cells) of the same compound?
**A.** The IC50 was 76 nM.

**Q.** And the “metabolism to 7-OH-MTX, in words” value [2]?
**A.** The value was “not even a slight metabolism of 7-NH2 -MTX to 7-OH-MTX could be detected over an hour”.

**Q.** Which results are given for `CC(C)Nc1nc2nc(N)nc(N)c2nc1CN(C)c1ccc(C(=O)N[C@@H](CCC(=O)O)C(=O)O)cc1` [7-NHCH(CH3)2 -MTX]?
**A.** IC50 (Chicken Liver DHFR): 500 nM; IC50 (K562 cells; [4]): 500 nM; IC50 (L. casei DHFR): 750 nM; IC50 (CCRF/CEM Cells): 5000 nM

**Q.** With `CCOc1nc2nc(N)nc(N)c2nc1CN(C)c1ccc(C(=O)N[C@@H](CCC(=O)O)C(=O)O)cc1` [7-OC2 H5 -MTX] as the compound, how does the IC50 (Chicken Liver DHFR) read?
**A.** Its IC50 is 2000 nM.

**Q.** What about the IC50 (K562 cells; [4]) of the same compound?
**A.** The IC50 was 850 nM.

**Q.** And the IC50 (L. casei DHFR)?
**A.** Its IC50 is 1200 nM.

**Q.** What about the IC50 (CCRF/CEM Cells) of the same compound?
**A.** The IC50 was 4000 nM.

**Q.** Which results are given for `COc1nc2nc(N)nc(N)c2nc1CN(C)c1ccc(C(=O)N[C@@H](CCC(=O)O)C(=O)O)cc1` [7-OCH3 -MTX]?
**A.** IC50 (Chicken Liver DHFR): 750 nM; IC50 (K562 cells; [4]): 450 nM; IC50 (L. casei DHFR): 1000 nM; IC50 (CCRF/CEM Cells): 4500 nM

**Q.** Which IC50 (Chicken Liver DHFR) does the source give for `CC(C)Oc1nc2nc(N)nc(N)c2nc1CN(C)c1ccc(C(=O)N[C@@H](CCC(=O)O)C(=O)O)cc1` [7-OCH(CH3)2 -MTX] here?
**A.** The IC50 was 200 nM.

**Q.** And the IC50 (K562 cells; [4])?
**A.** The IC50 was 1000 nM.

**Q.** And the IC50 (L. casei DHFR)?
**A.** The IC50 was 670 nM.

**Q.** And the IC50 (CCRF/CEM Cells)?
**A.** Its IC50 is 6000 nM.

**Q.** For `CN(Cc1nc2c(N)nc(N)nc2nc1P(=O)(O)O)c1ccc(C(=O)N[C@@H](CCC(=O)O)C(=O)O)cc1` [7-P(O)(OH)2 -MTX], which IC50 (Chicken Liver DHFR) is on record?
**A.** The IC50 was 10000 nM.

**Q.** What about the IC50 (K562 cells; [4]) of the same compound?
**A.** Its IC50 is 6000 nM.

**Q.** And the IC50 (L. casei DHFR)?
**A.** The IC50 was 15000 nM.

**Q.** With `Cc1nc2nc(N)nc(N)c2nc1CN(C)c1ccc(C(=O)N[C@@H](CCC(=O)O)C(=O)O)cc1` [7-methyl substituted MTX] as the compound, how does the “antifolate antagonism / biological activity, in words” value [1] read?
**A.** Its value is “impaired antifolate antagonism”.

**Q.** What does the source list for `CN(Cc1cnc2nc(N)nc(N)c2n1)c1ccc(C(=O)N[C@@H](CCC(=O)O)C(=O)O)cc1` [MTX]?
**A.** IC50 (K562 cells; K562, 120 h): 8 nM; IC50 (CCRF/CEM Cells): 11 nM; renal and hepatic toxicity, in words ([3]; high dose regimen): associated with renal and hepatic toxicity; conversion in vivo, in words ([3]; man and monkeys): converted in vivo to 7-hydroxymethotrexate (7-OH-MTX); metabolism to 7-OH-MTX, in words ([2]; over an hour, 37° C.): substantially metabolized to 7-OH-MTX within an hour; metabolised at 10 min ([2]; rabbit, liver homogenate): ~50%; remaining at 1 h ([2]; rabbit, liver homogenate): < 25%
